The IC50 is the concentration at which inhibition is half-maximal.

The source made the active and inactive calls. The rule behind the calls is not given here.

Data on 13 compounds can be found in PubChem BioAssay AID651581 (Sanford-Burnham Center for Chemical Genomics, 2012).

The target in assay [1] is Hypoxia-inducible factor 1-alpha (Homo sapiens) (UniProt Q16665). As to the kind of experiment: potency against HIF reporters across cell lines – luminescence, panel, selectivity assay for HIF-2a inhibitor project, dose response (AID 651581). The settings on record: human cell HIF reporter, HIF-1a.
In assay [2] the target is Endothelial PAS domain-containing protein 1 (Homo sapiens) (UniProt Q99814). The description is as above. The settings on record: human cell HIF reporter.

Hypoxia-inducible factor 1-alpha (Homo sapiens), sequence (Q16665 whole entry, looked up, the tested form may be a part): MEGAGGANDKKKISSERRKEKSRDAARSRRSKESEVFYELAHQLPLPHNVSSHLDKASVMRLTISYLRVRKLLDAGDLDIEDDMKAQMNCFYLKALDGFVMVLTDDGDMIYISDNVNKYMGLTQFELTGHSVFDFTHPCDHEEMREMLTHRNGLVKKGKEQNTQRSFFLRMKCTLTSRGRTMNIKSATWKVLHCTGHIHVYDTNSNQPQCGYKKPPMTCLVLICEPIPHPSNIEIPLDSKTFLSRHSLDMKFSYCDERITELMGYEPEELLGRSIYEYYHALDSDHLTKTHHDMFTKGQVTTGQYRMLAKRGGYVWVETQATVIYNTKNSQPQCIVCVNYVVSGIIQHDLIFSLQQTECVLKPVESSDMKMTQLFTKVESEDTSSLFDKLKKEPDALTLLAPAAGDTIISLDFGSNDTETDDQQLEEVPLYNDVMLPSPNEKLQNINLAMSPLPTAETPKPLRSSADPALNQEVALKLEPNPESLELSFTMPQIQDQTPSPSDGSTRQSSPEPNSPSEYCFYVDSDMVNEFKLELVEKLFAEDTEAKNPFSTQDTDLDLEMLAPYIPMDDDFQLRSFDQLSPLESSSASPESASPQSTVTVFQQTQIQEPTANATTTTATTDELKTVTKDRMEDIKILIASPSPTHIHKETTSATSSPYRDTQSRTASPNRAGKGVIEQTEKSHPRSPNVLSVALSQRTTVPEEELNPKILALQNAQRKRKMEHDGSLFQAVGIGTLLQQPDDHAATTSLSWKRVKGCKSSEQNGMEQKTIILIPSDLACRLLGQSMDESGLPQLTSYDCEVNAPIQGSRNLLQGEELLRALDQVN

As to `Cc1ccc(S(=O)(=O)ON2C(=O)c3ccccc3C2=O)c(C)c1`, the IC50 in assay [1] (run 1) is > 99 µM; in assay [1] (run 2) it was > 99 µM; in assay [2] (HIF-2a PANC, run 1), > 99 µM; in assay [2] (HIF-2a PANC, run 2), 38.7 µM; in assay [2] (HIF-2a, mean of runs), 5.62 µM; in assay [2] (HIF-2a, run 1) it was 5.63 µM. Further, the IC50 in assay [2] (HIF-2a, run 2) amounted to 5.6 µM.
On to `COc1ccc(OCc2cccc(C(=O)Nn3cc([N+](=O)[O-])cn3)c2)cc1`, for which the IC50 was 32.1 µM in assay [1] (run 1); < 30 µM in assay [1] (run 2); < 30 µM in assay [2] (HIF-2a PANC, run 1); 13.4 µM in assay [2] (HIF-2a PANC, run 2); 11.3 µM in assay [2] (HIF-2a, run 1); 9.04 µM in assay [2] (HIF-2a, run 2). Moreover, the IC50 result in assay [2] (HIF-2a, mean of runs) was “inactive”.
Regarding `Cc1nc2cc(-c3ccccc3)nn2c(C)c1CCC(=O)N1CCN(c2ccccc2)CC1`, the IC50 in assay [1] (mean of runs) is 8.15 µM; in assay [1] (run 1), 8.3 µM; in assay [1] (run 2), 7.99 µM; in assay [2] (HIF-2a PANC, mean of runs), 1.59 µM; in assay [2] (HIF-2a PANC, run 1) it was 1.41 µM; in assay [2] (HIF-2a PANC, run 2), 1.77 µM. The IC50 in assay [2] (HIF-2a, mean of runs) was 1.05 µM; in assay [2] (HIF-2a, run 1) it was 0.978 µM; in assay [2] (HIF-2a, run 2) it was 1.13 µM.
In the case of `Cc1c(CCC(=O)O)c(=O)oc2cc3oc4c(c3cc12)CCCC4`, the IC50 in assay [1] (mean of runs) was 1.12 µM; in assay [1] (run 1), 1.15 µM; in assay [1] (run 2), 1.08 µM; in assay [2] (HIF-2a PANC, mean of runs) it was 0.708 µM; in assay [2] (HIF-2a PANC, run 1), 0.793 µM; in assay [2] (HIF-2a PANC, run 2) it was 0.623 µM. Moreover, the IC50 was 0.276 µM in assay [2] (HIF-2a, mean of runs); 0.267 µM in assay [2] (HIF-2a, run 1); 0.286 µM in assay [2] (HIF-2a, run 2).
With `CCOC(=O)c1cccc(NC(=O)/C=C/c2ccc3c(c2)OCO3)c1`, the IC50 entry in assay [1] (mean of runs) is “inactive”; in assay [2] (HIF-2a, mean of runs), “inactive”. Also, the IC50 in assay [1] (run 1) was 25.4 µM; in assay [1] (run 2), 27.5 µM; in assay [2] (HIF-2a PANC, run 1), 42.7 µM; in assay [2] (HIF-2a PANC, run 2), > 99 µM; in assay [2] (HIF-2a, run 1), 18.6 µM; in assay [2] (HIF-2a, run 2), 14.7 µM.
Consider `N#Cc1c(NC(=O)CSc2ncn[nH]2)sc2c1CCCCC2`, for which the IC50 in assay [1] (run 1) was > 99 µM; in assay [1] (run 2), 1.47 µM; in assay [2] (HIF-2a PANC, mean of runs) it was < 0.19 µM; in assay [2] (HIF-2a PANC, run 1) it was < 0.19 µM; in assay [2] (HIF-2a PANC, run 2), < 10 µM; in assay [2] (HIF-2a, mean of runs) it was < 0.3 µM. Moreover, the IC50 was < 0.3 µM in assay [2] (HIF-2a, run 1) and < 0.3 µM in assay [2] (HIF-2a, run 2).
Regarding `CC(C)(C)c1ccc(-c2noc(CCC(=O)NCC3CCCO3)n2)cc1` (configuration not stated), the IC50 is > 99 µM in assay [1] (run 1); > 99 µM in assay [1] (run 2); < 3 µM in assay [2] (HIF-2a PANC, mean of runs); < 3 µM in assay [2] (HIF-2a PANC, run 1); < 10 µM in assay [2] (HIF-2a PANC, run 2); < 10 µM in assay [2] (HIF-2a, mean of runs). The IC50 in assay [2] (HIF-2a, run 1) is < 10 µM; in assay [2] (HIF-2a, run 2), < 10 µM.
On to `O=[N+]([O-])C1C(c2ccccc2)C12c1ccccc1-c1ccccc12` (configuration not stated), for which the IC50 is 40.8 µM in assay [1] (mean of runs); 41.2 µM in assay [1] (run 1); 40.3 µM in assay [1] (run 2); > 99 µM in assay [2] (HIF-2a PANC, run 1); < 3 µM in assay [2] (HIF-2a PANC, run 2); 7.05 µM in assay [2] (HIF-2a, mean of runs). Besides, the IC50 is 7.84 µM in assay [2] (HIF-2a, run 1) and 6.26 µM in assay [2] (HIF-2a, run 2).
Take `Cc1nc2cc(-c3ccccc3)nn2c(C)c1CCC(=O)N1CCC2(CC1)OCCO2`: the IC50 in assay [1] (mean of runs) was 53 µM; in assay [1] (run 1) it was 53.9 µM; in assay [1] (run 2) it was 52 µM; in assay [2] (HIF-2a PANC, mean of runs), 2.49 µM; in assay [2] (HIF-2a PANC, run 1), 2.63 µM; in assay [2] (HIF-2a PANC, run 2), 2.35 µM. In addition, the IC50 in assay [2] (HIF-2a, mean of runs) was 0.832 µM; in assay [2] (HIF-2a, run 1), 0.742 µM; in assay [2] (HIF-2a, run 2) it was 0.921 µM.
With `Cc1ccc(C)c(-c2nc3cc(N)ccc3o2)c1`, the half-maximal inhibitory concentration (IC50) was > 99 µM in assay [1] (run 1); 56.4 µM in assay [1] (run 2); 2.65 µM in assay [2] (HIF-2a PANC, mean of runs); 2.6 µM in assay [2] (HIF-2a PANC, run 1); 2.7 µM in assay [2] (HIF-2a PANC, run 2); 3.03 µM in assay [2] (HIF-2a, mean of runs). The IC50 in assay [2] (HIF-2a, run 1) was determined as 3.35 µM; in assay [2] (HIF-2a, run 2), 2.7 µM.
As for `Cc1nn(-c2ccccc2Cl)c(Cl)c1/C=N/Nc1cccc(C(=O)O)c1`, the 50% inhibitory concentration (IC50) in assay [1] (run 1) was > 99 µM; in assay [1] (run 2) it was > 99 µM; in assay [2] (HIF-2a PANC, mean of runs) it was > 99 µM (inactive); in assay [2] (HIF-2a PANC, run 1) it was > 99 µM; in assay [2] (HIF-2a PANC, run 2), > 99 µM; in assay [2] (HIF-2a, run 1), 23.5 µM. The same compound came in with an IC50 in assay [2] (HIF-2a, run 2) of 24.2 µM. The IC50 result in assay [2] (HIF-2a, mean of runs) was “inactive”.
For the compound `COc1ccc(/C=C2\SC(=O)N(CCNC(=O)Cn3[nH]c(=O)c4ccccc4c3=O)C2=O)cc1`, the IC50 result in assay [1] (mean of runs) was “inactive”; in assay [2] (HIF-2a, mean of runs) it was “inactive”. Moreover, the IC50 in assay [1] (run 1) was 7.03 µM; in assay [1] (run 2) it was 17.2 µM; in assay [2] (HIF-2a PANC, mean of runs), 7.76 µM; in assay [2] (HIF-2a PANC, run 1), 8.52 µM; in assay [2] (HIF-2a PANC, run 2), 7.01 µM; in assay [2] (HIF-2a, run 1), 12 µM. This compound showed a concentration for half-maximal inhibition (IC50) in assay [2] (HIF-2a, run 2) of 13.1 µM.
On to `Cc1ccc(C(=O)c2cccc(N)c2)cc1C`, for which the concentration for half-maximal inhibition (IC50) in assay [1] (mean of runs) is 4.05 µM; in assay [1] (run 1), 5.07 µM; in assay [1] (run 2) it was 3.03 µM; in assay [2] (HIF-2a PANC, run 1), 3.29 µM; in assay [2] (HIF-2a PANC, run 2), 6.42 µM; in assay [2] (HIF-2a, mean of runs), 0.864 µM. The IC50 stood at 0.858 µM in assay [2] (HIF-2a, run 1) and 0.87 µM in assay [2] (HIF-2a, run 2). Further, the IC50 result in assay [2] (HIF-2a PANC, mean of runs) was “inactive”.
